Measurements from US8349835B2, “Aromatic ring fused triazine derivatives and uses thereof” (Shenyang Pharmaceutical University, priority 2008, dated 2013).

Tests used:
[1] = test system: Microvascular Endothelial Cells (MVEC); assay: MTT growth inhibition of MVEC; type: cell-based; settings: Endothelial cell, 96 h, 4 days culture with drug, read-out: IG50 on inhibiting growth of MVEC
Description: In Vitro Anti-Tumor Activity Test
Put cell suspension into centrifugal tubes with a pipette under sterile conditions, then the cell suspension was centrifuged for 3 minutes at 1300 rpm. Discarded the supernatant lightly and added fresh culture medium. Mixed the cells by pipetting, then transferred the cells into culture flasks, and put them into the CO2 incubator. Changed the culture medium once after 24 hours.
Human prostate cancer cells (DU145, PC-3) were cultured in a medium containing RPMI1640 basic medium supplemented with 10% heat-inactivated FBS, 100 IU/mL penicillin, 100 μg/mL streptomycin and 1 mmol/L L-glutamine. Human breast carcinoma cells (T47D, MDA-MB231) were cultured in a medium containing RPM11640 basic medium supplemented with 10% heat-inactivated FBS, 5 μg/mL insulin, 100 IU/mL penicillin, 100 μg/mL streptomycin and 1 mmol/L L-glutamine. Human breast carcinoma cells (MCF-7) were cultured in a medium containing DMEM basic medium supplemented with 10% heat-inactivated FBS, 5 μg/mL insulin, 100 IU/mL penicillin, 100 μg/mL streptomycin and […]. Murine Lewis lung cancer cells (LL/2), murine melanoma cells (B16FD) and Microvascular Endothelial Cells (MVEC) were cultured in a medium containing DMEM basic medium supplemented with 10% heat-inactivated FBS, 4.5 g/L glucose, 1.5 g/L NaHCO3, 100 IU/mL penicillin, 100 μg/mL streptomycin and 4 mmol/L L-glutamine. All these cell lines were incubated at 37° C. biochemical incubator with 5% CO2 saturated humidity.
After resuscitation, the cells were passed for 2-3 generations till they became stable, then they were used for the experiments. Each passage was based on the standard that all cells were spread over the bottoms of culture flasks.
Cells were digested off from the bottoms of culture flasks with trypsin (0.25%). The cell dissociation buffer was transferred into centrifuge tubes, added medium to stop the digestion, and centrifuged for 3 minutes at 1300 rpm. Discarded the supernatant lightly and added fresh culture medium (5 mL). Mixed the cells by pipetting, then added 10 μL of the cell suspension into the cell counting plate, and adjusted the cell concentration to 2×10^4 cells/mL. Added 100 μL of the cell suspension to all wells on the 96 well plates, except A1 well as the blank control. Put the plates into the biochemical incubator for 24 hours and to make sure the cells grew along the walls.
The drugs were dissolved in 80 mmol/L DMSO first, and then diluted the drugs with ethanol to 8 mmol/L. The solution was further diluted with the culture medium to different concentrations as 160 μmol/L, 120 μmol/L, 80 μmol/L, 40 μmol/L, 20 μmol/L and 10 μmol/L. Added 100 μL of the drug solution to each well on the 96 well plates. Therefore, the final concentrations of the drugs that were added to the cells were 80 μmol/L, 40 μmol/L, 20 μmol/L, 10 μmol/L and 5 μmol/L, and each concentration were repeated in three parallel wells. Put the culture plates into the biochemical incubator to culture continuously for 4 days.
Added 50 μL MTT liquids (2 mg/mL) into each well, put the culture plates into the biochemical incubator for 4 h, discarded MTT liquids (TCC), added 200 μL DMSO, then oscillated for 10 minutes on the magnetic oscillator to make sure that the survived cells and the reaction product of MTT were fully dissolved. Detected and recorded the absorbance (OD) values of each well at the wavelength of 570 nm using the microplate reader. The OD values of cells without tested drugs were used as control. The cell growth inhibition rates under each drug concentration were calculated by the following formula. […] Inhibition rate of growth(%)=(1−The absorbance(OD)of cells with tested drugs/The absorbance(OD)of the blank control group)×100%
The absorbance (OD) of cells with tested drugs: OD value is measured with the test drugs.
The absorbance (OD) of the blank control group: OD value is measured without the test drugs. […]

VEGFR-2 = VEGFR-2 (Homo sapiens, UniProt P35968); assay: VEGFR-2 inhibition rate test (kinase assay kit, colorimetric ELISA); settings: concentration not given
Rat aortic ring = assay: Rat Aortic Ring Assay; type: cell-based; settings: for inhibition at 10 µg/mL: Rattus norvegicus, 10 ug/ml, compared with blank control, sixth day; for Rat Aortic Ring Assay (10 ug/ml), result in words: observed on the sixth day
From the text: Rat Aortic Ring Assay • 1) 6 week old SD […] (Sprague Dawley) were selected for the experiments. Cleaned abdominal skin with 75% ethanol to disinfect, and then anesthetized the mice with ether, • 2) Carefully removed the abdominal aortas and transferred the aortas to normal saline. Excessive vascular tissues were carefully removed with scissors. • 3) The aortas were rinsed with normal saline until no blood stain remained. • 4) Sectioned the aortas into one millimeter depth arterial slices with ophthalmological scissors. • 5) Add 50 μL pre-thawed Matrigel to each well of the pre-cooled 96 well cell culture plates, and embedded the ring-shaped mouse aortas in collagen gel. • 6) Incubated for 60 minutes at 37° C. to solidificate the gel. • 7) Added DMEM culture solution containing 10% FBS, along with different concentrations of the selected compounds into the wells and cultured in the incubator. Every compound was repeated in no less than 3 wells. • 8) Replaced with the fresh medium and changed the medicine once on the third day. • 9) Took out the pates on the sixth day, and observed the vascular growth with Microscope (OLYMPUS, DP70, Japan) and took photographs(×100). Randomly chose 3 arterial rings to photograph and calculated the area covered by micro-vascular with Image Pro Plus software. The inhibition rate is calculated as:
[formula] • Evaluation criteria: ⋆inhibition rate[…]; ⋆⋆inhibition rate 60-90%; ⋆⋆⋆inhibition rate>90%.

Chain of VEGFR-2 (P35968 20-1356): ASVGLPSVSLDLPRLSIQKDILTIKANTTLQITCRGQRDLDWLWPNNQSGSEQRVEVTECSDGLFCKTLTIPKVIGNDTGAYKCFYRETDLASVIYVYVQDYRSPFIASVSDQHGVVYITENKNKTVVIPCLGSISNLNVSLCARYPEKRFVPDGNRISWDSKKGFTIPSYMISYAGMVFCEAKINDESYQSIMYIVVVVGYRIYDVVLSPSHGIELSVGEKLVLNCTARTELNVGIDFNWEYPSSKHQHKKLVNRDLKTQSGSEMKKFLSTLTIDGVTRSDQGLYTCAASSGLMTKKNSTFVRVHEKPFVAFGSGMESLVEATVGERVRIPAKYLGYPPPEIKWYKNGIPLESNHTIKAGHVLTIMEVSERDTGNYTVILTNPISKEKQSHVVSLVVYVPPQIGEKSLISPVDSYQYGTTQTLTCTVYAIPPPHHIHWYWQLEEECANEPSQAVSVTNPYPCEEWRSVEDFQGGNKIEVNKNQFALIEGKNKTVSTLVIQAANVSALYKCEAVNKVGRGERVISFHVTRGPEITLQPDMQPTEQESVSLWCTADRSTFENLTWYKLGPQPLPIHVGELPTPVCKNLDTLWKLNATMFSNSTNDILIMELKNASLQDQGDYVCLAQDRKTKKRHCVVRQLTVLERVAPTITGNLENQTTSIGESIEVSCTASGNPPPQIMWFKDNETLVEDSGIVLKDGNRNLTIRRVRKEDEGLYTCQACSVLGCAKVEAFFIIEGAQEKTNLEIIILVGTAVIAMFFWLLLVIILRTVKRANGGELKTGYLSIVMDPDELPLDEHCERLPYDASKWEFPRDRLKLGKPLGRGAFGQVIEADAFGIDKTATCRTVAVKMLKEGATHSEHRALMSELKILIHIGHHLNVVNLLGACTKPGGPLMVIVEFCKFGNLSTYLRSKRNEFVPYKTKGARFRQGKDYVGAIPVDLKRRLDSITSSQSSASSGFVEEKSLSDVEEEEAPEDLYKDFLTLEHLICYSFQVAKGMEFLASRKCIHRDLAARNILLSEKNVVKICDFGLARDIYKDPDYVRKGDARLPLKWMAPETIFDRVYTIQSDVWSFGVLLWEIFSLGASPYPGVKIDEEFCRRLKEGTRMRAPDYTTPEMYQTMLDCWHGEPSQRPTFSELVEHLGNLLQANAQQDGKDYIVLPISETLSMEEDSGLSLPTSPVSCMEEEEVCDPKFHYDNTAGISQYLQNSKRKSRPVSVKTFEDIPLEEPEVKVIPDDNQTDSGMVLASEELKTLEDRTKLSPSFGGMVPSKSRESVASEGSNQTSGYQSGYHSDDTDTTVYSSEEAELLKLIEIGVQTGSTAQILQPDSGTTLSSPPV

## CCCCCOc1cc2nnnc(Nc3ccc(F)c(C(F)(F)F)c3)c2cc1OC [Example 56, 6-methoxy-7-pentyloxy-4-(3-trifluoromethyl-4-fluoroanilino)-benzo[d][1,2,3]triazine]
[1]
  IC50: 16.3 µM
VEGFR-2
  Kinase inhibition rate (VEGFR-2): −3.74

## COc1cc2c(Nc3ccc(F)c(C(F)(F)F)c3)nnnc2cc1OCCCCl [Example 73, 6-methoxy-7-chloropropoxy-4-(3-trifluoromethyl-4-fluoroanilino)-benzo[d][1,2,3]triazine]
[1]
  IC50: 15.2 µM
VEGFR-2
  Kinase inhibition rate (VEGFR-2): 2.40

## COc1cc2c(Nc3cc(Cl)cc(Cl)c3)nnnc2cc1OCCCCl [Example 63, 6-methoxy-7-chloropropoxy-4-(3,5-dichloroanilino)-benzo[d][1,2,3]triazine]
[1]
  IC50: 28.8 µM
VEGFR-2
  Kinase inhibition rate (VEGFR-2): −9.97

## CCCCOc1cc2nnnc(Nc3ccc(Cl)c(Cl)c3)c2cc1OC [Example 15, 6-methoxy-7-n-butoxy-4-(3,4-dichloroanilino)-benzo[d][1,2,3]triazine]
Rat aortic ring
  inhibition at 10 µg/mL: ~30%
[1]
  IC50: 15.5 µM

## CCCCOc1cc2nnnc(Nc3cccc(Br)c3)c2cc1OC [Example 25, 6-methoxy-7-n-butoxy-4-(3-bromoanilino)-benzo[d][1,2,3]triazine]
[1]
  IC50: 16.8 µM
VEGFR-2
  Kinase inhibition rate (VEGFR-2): 5.61

## Clc1cccc(Nc2nnnc3ccc(Cl)nc23)c1 [Example 88, 6-chloro-4-(3-chloroanilino)pyrido[3,2-d][1,2,3]triazine]
Rat aortic ring
  Rat Aortic Ring Assay (10 ug/ml), result in words: Almost complete inhibition (10 μg/mL), vascular ring was dead
[1]
  IC50: 12.7 µM
VEGFR-2
  Kinase inhibition rate (VEGFR-2): 2.39

## Fc1cc(F)cc(Nc2nnnc3ccc(Cl)nc23)c1 [Example 81, 6-chloro-4-(3,5-difluoroanilino)pyrido[3,2-d][1,2,3]triazine]
Rat aortic ring
  Rat Aortic Ring Assay (10 ug/ml), result in words: Almost complete inhibition (10 μg/mL), vascular ring was dead.
[1]
  IC50: 10.3 µM
VEGFR-2
  Kinase inhibition rate (VEGFR-2): −6.44

## Fc1ccc(Nc2nnnc3ccc(Cl)nc23)cc1Cl [Example 89, 6-chloro-4-(3-chloro-4-fluoroanilino)pyrido[3,2-d][1,2,3]triazine]
[1]
  IC50: 9.85 µM
VEGFR-2
  Kinase inhibition rate (VEGFR-2): −0.25

## Fc1ccccc1Nc1nnnc2ccc(Cl)nc12 [Example 91, 6-chloro-4-(2-fluoroanilino)pyrido[3,2-d][1,2,3]triazine]
Rat aortic ring
  Rat Aortic Ring Assay (10 ug/ml), result in words: No significant inhibition
[1]
  IC50: 10.8 µM

## COc1cc2c(Nc3ccc(C)cc3)nnnc2cc1OCCCCl [Example 77, 6-methoxy-7-chloropropoxy-4-(4-methylanilino)-benzo[d][1,2,3]triazine]
Rat aortic ring
  Rat Aortic Ring Assay (10 ug/ml), result in words: Micro-vascular growth was significantly inhibited, affecting cell
[1]
  IC50: 17.1 µM

## CCCCCOc1cc2nnnc(Nc3ccc(Cl)c(Cl)c3)c2cc1OC [Example 48, 6-methoxy-7-pentyloxy-4-(3,4-dichloroanilino)-benzo[d][1,2,3]triazine]
[1]
  IC50: 16.9 µM
VEGFR-2
  Kinase inhibition rate (VEGFR-2): −21.65

## Clc1cc(Cl)cc(Nc2nnnc3ccc(Cl)nc23)c1 [Example 80, 6-chloro-4-(3,5-dichloroanilino)pyrido[3,2-d][1,2,3]triazine]
Rat aortic ring
  Rat Aortic Ring Assay (10 ug/ml), result in words: Almost complete inhibition (10 μg/mL), vascular ring was dead.
[1]
  IC50: 7.93 µM

## Clc1ccc(Nc2nnnc3ncc(Cl)cc23)cc1 [Example 83, 6-chloro-4-(4-chloroanilino)pyrido[3,2][1,2,3]triazine]
Rat aortic ring
  Rat Aortic Ring Assay (10 ug/ml), result in words: No significant inhibition
[1]
  IC50: 10.5 µM
VEGFR-2
  Kinase inhibition rate (VEGFR-2): 23.56

## Clc1ccc2nnnc(Nc3ccccc3)c2n1 [Example 78, 6-chloro-4-anilino-pyrido[3,2-d][1,2,3]triazine]
Rat aortic ring
  Rat Aortic Ring Assay (10 ug/ml), result in words: No significant inhibition in the previous 3 days, but vascular ring
[1]
  IC50: 10.7 µM
VEGFR-2
  Kinase inhibition rate (VEGFR-2): 15.87

## CCOc1cc2nnnc(Nc3ccc(Cl)cc3)c2cc1OC [Example 33, 6-methoxy-7-ethoxy-4-(4-chloroanilino)-benzo[d][1,2,3]triazine]
[1]
  IC50: 26.5 µM

## COc1cc2c(Nc3cccc(OC(F)(F)F)c3)nnnc2cc1OCCCCl [Example 69, 6-methoxy-7-chloropropoxy-4-(3-trifluoromethoxyanilino)-benzo[d][1,2,3]triazine]
[1]
  IC50: 24.9 µM
VEGFR-2
  Kinase inhibition rate (VEGFR-2): −14.75

## COc1cc2c(Nc3ccc(Cl)c(Cl)c3)nnnc2cc1OCCCCl [Example 65, 6-methoxy-7-chloropropoxy-4-(3,4-dichloroanilino)-benzo[d][1,2,3]triazine]
[1]
  IC50: 11 µM

## FC(F)(F)Oc1ccc(Nc2nnnc3ccc(Cl)nc23)cc1 [Example 87, 6-chloro-4-(4-trifluoromethoxyanilino)pyrido[3,2-d][1,2,3]triazine]
Rat aortic ring
  Rat Aortic Ring Assay (10 ug/ml), result in words: Almost complete inhibition (10 μg/mL), vascular ring was dead
[1]
  IC50: 11.5 µM

## FC(F)(F)c1ccc(Nc2nnnc3ccc(Cl)nc23)cc1 [Example 85, 6-chloro-4-(4-trifluoromethylanilino)pyrido[3,2-d][1,2,3]triazine]
Rat aortic ring
  Rat Aortic Ring Assay (10 ug/ml), result in words: No significant inhibition
[1]
  IC50: 8.06 µM

## COc1cc2c(Nc3ccc(Cl)cc3)nnnc2cc1OCCCCl [Example 66, 6-methoxy-7-chloropropoxy-4-(4-chloroanilino)-benzo[d][1,2,3]triazine]
[1]
  IC50: 38.6 µM
VEGFR-2
  Kinase inhibition rate (VEGFR-2): −10.15

## Fc1cc(Nc2nnnc3ccc(Cl)nc23)ccc1Br [Example 79, 6-chloro-4-(3-fluoro-4-bromoanilino)-pyrido[3,2-d][1,2,3]-triazine]
Rat aortic ring
  Rat Aortic Ring Assay (10 ug/ml), result in words: Almost complete inhibition (10 μg/mL), vascular ring was dead
[1]
  IC50: 9.56 µM

## CCCCCOc1cc2nnnc(Nc3ccc(Cl)cc3)c2cc1OC [Example 49, 6-methoxy-7-pentyloxy-4-(4-chloroanilino)-benzo[d][1,2,3]triazine]
[1]
  IC50: 25.3 µM

## Clc1ccc2nnnc(Nc3ccc(Cl)c(Cl)c3)c2n1 [Example 82, 6-chloro-4-(3,4-dichloroanilino)pyrido[3,2-d][1,2,3]triazine]
Rat aortic ring
  inhibition at 10 µg/mL: > 80%
[1]
  IC50: 9.19 µM

## CCOc1cc2nnnc(Nc3ccc(Cl)c(Cl)c3)c2cc1OC [Example 32, 6-methoxy-7-ethoxy-4-(3,4-dichloroanilino)-benzo[d][1,2,3]triazine]
[1]
  IC50: 14.3 µM

## CCCCCOc1cc2nnnc(Nc3ccc(F)c(Cl)c3)c2cc1OC [Example 55, 6-methoxy-7-pentyloxy-4-(3-chloro-4-fluoroanilino)benzo[d][1,2,3]triazine]
[1]
  IC50: 14.8 µM
VEGFR-2
  Kinase inhibition rate (VEGFR-2): −0.53
